Assay results as given in patent US20190292174A1, “MICROBIOCIDAL OXADIAZOLE DERIVATIVES” (SYNGENTA PARTICIPATIONS AG, priority 2016, published 2019).
Values joined by “and” are separate entries in the source; they are usually repeats but may differ in a detail not shown here. Identical values can stand only once.

Assays:
[1] = tested on: Glomerella lagenarium (Colletotrichum lagenarium); experiment: Glomerella lagenarium (Colletotrichum lagenarium) liquid culture / cucumber / preventative (anthracnose); format: cell-based; conditions: Colletotrichum orbiculare, liquid culture (PDB), growth inhibition measured photometrically 3-4 days after application, compared to untreated control
Procedure: […] fragments or conidia suspensions of a fungus prepared either freshly from liquid cultures of the fungus or from cryogenic storage, are directly mixed into nutrient broth. DMSO solutions of the test compound (max. 10 mg/ml) are diluted with 0.025% Tween20 by a factor of 50 and 10 μl of this solution is pipetted into a microtiter plate (96-well format). The nutrient broth containing the fungal spores/mycelia fragments is then added to give an end concentration of the tested compound. The test plates are incubated in the dark at 24° C., and 96% relative humidity. The inhibition of fungal growth is determined photometrically after 2 to 7 days, depending on the pathosystem, and percent antifungal activity relative to the untreated check is calculated. Conidia of the fungus from cryogenic storage are directly mixed into nutrient broth (PDB potato dextrose broth). Alter placing a (DMSO) solution of test compound into a microtiter plate (96-well format), the nutrient broth containing the fungal spores is added. The test plates are incubated at 24° C., and the inhibition of growth is measured photometrically 3-4 days after application.

[2] = tested on: Puccinia recondita f. sp. tritici; experiment: Puccinia recondita f. sp. tritici / wheat / leaf disc curative (brown rust); format: in vivo; conditions: foliar, 24 h, wheat leaf segments cv. Kanzler, curative (applied 1 day after inoculation), compared to untreated control, read-out: control of Puccinia recondita f. sp. tritic
Procedure: Leaf disks or leaf segments of various plant species are cut from plants grown in a greenhouse. The cut leaf disks or segments are placed in multiwell plates (24-well format) onto water agar. The leaf disks are sprayed with a test solution before (preventative) or after (curative) inoculation. Compounds to be tested are prepared as DMSO solutions (max. 10 mg/ml) which are diluted to the appropriate concentration with 0.025% Tween20 just before spraying. The inoculated leaf disks or segments are incubated under defined conditions (temperature, relative humidity, light, etc.) according to the respective test system. A single evaluation of disease level is carried out 3 to 14 days after inoculation, depending on the pathosystem. Percent disease control relative to the untreated check leaf disks or segments is then calculated. Wheat leaf segments cv. Kanzler are placed on agar in multiwell plates (24-well format). The leaf segments are inoculated with a spore suspension of the fungus. Plates are stored in darkness at 19° C., and 75% rh. The formulated test compound diluted in water is applied 1 day after inoculation. The leaf segments are incubated at 19° C., and 75% rh under a light regime of 12 h light/12 h darkness in a climate cabinet and the activity of a compound is assessed as percent disease control compared to untreated when an appropriate level of disease damage appears in untreated check leaf segments (6-8 days after application).

[3] = tested on: Phakopsora pachyrhizi; experiment: Phakopsora pachyrhizi / soybean / leaf disc preventative (Asian soybean rust); format: in vivo; conditions: foliar, soybean leaf disks, compared to untreated control
Procedure: Leaf disks or leaf segments of various plant species are cut from plants grown in a greenhouse. The cut leaf disks or segments are placed in multiwell plates (24-well format) onto water agar. The leaf disks are sprayed with a test solution before (preventative) or after (curative) inoculation. Compounds to be tested are prepared as DMSO solutions (max. 10 mg/ml) which are diluted to the appropriate concentration with 0.025% Tween20 just before spraying. The inoculated leaf disks or segments are incubated under defined conditions (temperature, relative humidity, light, etc.) according to the respective test system. A single evaluation of disease level is carried out 3 to 14 days after inoculation, depending on the pathosystem. Percent disease control relative to the untreated check leaf disks or segments is then calculated. Soybean leaf disks are placed on water agar in multiwell plates (24-well format) and sprayed with the formulated test compound diluted in water. One day after application leaf discs are inoculated by spraying a spore suspension on the lower leaf surface. After an incubation period in a climate cabinet of 24-36 hours in darkness at 20° C., and 75% rh leaf disc are kept at 20° C. with 12 h light/day and 75% rh. The activity of a compound is assessed as percent disease control compared to untreated when an appropriate level of disease damage appears in untreated check leaf disks (12-14 days after application).

[4] = tested on: Puccinia recondita f. sp. tritici; experiment: Puccinia recondita f. sp. tritici / wheat / leaf disc preventative (brown rust); format: in vivo; conditions: foliar, wheat leaf segments cv. Kanzler, preventative (inoculated 1 day after application), compared to untreated control
Procedure: Leaf disks or leaf segments of various plant species are cut from plants grown in a greenhouse. The cut leaf disks or segments are placed in multiwell plates (24-well format) onto water agar. The leaf disks are sprayed with a test solution before (preventative) or after (curative) inoculation. Compounds to be tested are prepared as DMSO solutions (max. 10 mg/ml) which are diluted to the appropriate concentration with 0.025% Tween20 just before spraying. The inoculated leaf disks or segments are incubated under defined conditions (temperature, relative humidity, light, etc.) according to the respective test system. A single evaluation of disease level is carried out 3 to 14 days after inoculation, depending on the pathosystem. Percent disease control relative to the untreated check leaf disks or segments is then calculated. Wheat leaf segments cv. Kanzler are placed on agar in multiwell plates (24-well format) and sprayed with the formulated test compound diluted in water. The leaf disks are inoculated with a spore suspension of the fungus 1 day after application. The inoculated leaf segments are incubated at 19° C. and 75% rh under a light regime of 12 h light/12 h darkness in a climate cabinet and the activity of a compound is assessed as percent disease control compared to untreated when an appropriate level of disease damage appears in untreated check leaf segments (7-9 days after application).

Compound	inhibition of growth at 20 ppm [1] [%]	melting point	pest or weed control at 200 ppm [2] [%]	pest or weed control at 200 ppm [3] [%]	pest or weed control at 200 ppm [4] [%]
O=C(NN1CCOC1=O)c1ccc(-c2noc(C(F)(F)F)n2)cc1 [Compound 1.19, N-(2-oxooxazolidin-3-yl)-4-[5-(trifluoromethyl)-1,2,4-oxadiazol-3-yl]benzamide]	≥ 80	196 to 200 °C	≥ 80	≥ 80	≥ 80
CN(C)N(CC(=O)NC(C)(C)C)C(=O)c1ccc(-c2noc(C(F)(F)F)n2)cc1 [Compound 1.1, N-tert-butyl-2-[dimethylamino-[4-[5-(trifluoromethyl)-1,2,4-oxadiazol-3-yl]benzoyl]amino]-acetamide]	≥ 80		≥ 80	≥ 80	≥ 80
O=C(NN1CCCCC1=O)c1ccc(-c2noc(C(F)(F)F)n2)cc1 [Compound 1.7, N-(2-oxo-1-piperidyl)-4-[5-(trifluoromethyl)-1,2,4-oxadiazol-3-yl]benzamide]		192 to 216 °C		≥ 80	≥ 80
O=C(NN1CCCCC1=O)c1ccc(-c2noc(C(F)(F)F)n2)cc1F [Compound 1.23, 2-fluoro-N-(2-oxo-1-piperidyl)-4-[5-(trifluoromethyl)-1,2,4-oxadiazol-3-yl]benzamide]	≥ 80	120 to 136 °C	≥ 80	≥ 80	≥ 80
CC(C)(C)NC(=O)CN(C(=O)c1ccc(-c2noc(C(F)(F)F)n2)cc1)N1CCOC1=O [Compound 1.2, N-[2-(tert-butylamino)-2-oxo-ethyl]-N-(2-oxooxazolidin-3-yl)-4-[5-(trifluoromethyl)-1,2,4-oxadiazol-3-yl]benzamide]				≥ 80	≥ 80
CN(C)NC(=O)Cc1ccc(-c2noc(C(F)(F)F)n2)cc1 [Compound 1.27, N′,N′-dimethyl-2-[4-[5-(trifluoromethyl)-1,2,4-oxadiazol-3-yl]phenyl]-acetohydrazide]	≥ 80	180 to 182 °C	≥ 80	≥ 80	≥ 80
O=C(NN1CCOCC1)c1ccc(-c2noc(C(F)(F)F)n2)cc1F [Compound 1.15, 2-fluoro-N-morpholino-4-[5-(trifluoromethyl)-1,2,4-oxadiazol-3-yl]benzamide]	≥ 80	140 to 160 °C	≥ 80	≥ 80	≥ 80
CC(C)OCC1CN(NC(=O)c2ccc(-c3noc(C(F)(F)F)n3)cc2)C(=O)O1 (centres unmarked) [Compound 1.20, N-[5-(isopropoxymethyl)-2-oxo-oxazolidin-3-yl]-4-[5-(trifluoromethyl)-1,2,4-oxadiazol-3-yl]benzamide]	≥ 80	192 to 197 °C		≥ 80	
CC(=O)NNC(=O)c1ccc(-c2noc(C(F)(F)F)n2)cc1F [Compound 1.4, N′-acetyl-2-fluoro-4-[5-(trifluoromethyl)-1,2,4-oxadiazol-3-yl]benzohydrazide]			≥ 80	≥ 80	≥ 80
O=C(Cc1ccc(-c2noc(C(F)(F)F)n2)cc1)NN1CCOC1=O [Compound 1.21, N-(2-oxooxazolidin-3-yl)-2-[4-[5-(trifluoromethyl)-1,2,4-oxadiazol-3-yl]phenyl]acetamide]	≥ 80	184 to 187 °C	≥ 80	≥ 80	≥ 80
CN(C)NC(=O)Cc1ccc(-c2noc(C(F)(F)F)n2)cc1F [Compound 1.26, 2-[2-fluoro-4-[5-(trifluoromethyl)-1,2,4-oxadiazol-3-yl]phenyl]-N′,N′-dimethyl-acetohydrazide]	≥ 80	156 to 158 °C	≥ 80	≥ 80	≥ 80
O=C(NNCCOC(F)F)c1ccc(-c2noc(C(F)(F)F)n2)cc1 [Compound 1.22, N′-[2-(difluoromethoxy)ethyl]-4-[5-(trifluoromethyl)-1,2,4-oxadiazol-3-yl]benzohydrazide]	≥ 80		≥ 80	≥ 80	≥ 80
O=C(NN1CCOC1=O)c1ccc(-c2noc(C(F)(F)F)n2)cc1F [Compound 1.3, 2-fluoro-N-(2-oxooxazolidin-3-yl)-4-[5-(trifluoromethyl)-1,2,4-oxadiazol-3-yl]benzamide]	≥ 80	186 to 189 °C and 186.8 to 188.8 °C	≥ 80	≥ 80	≥ 80
O=C(Cc1ccc(-c2noc(C(F)(F)F)n2)cc1)NN1CCCCC1=O [Compound 1.14, N-(2-oxo-1-piperidyl)-2-[4-[5-(trifluoromethyl)-1,2,4-oxadiazol-3-yl]phenyl]acetamide]		165 to 170 °C	≥ 80	≥ 80	≥ 80
CN1CCN(NC(=O)c2ccc(-c3noc(C(F)(F)F)n3)cc2)C1=O [Compound 1.8, N-(3-methyl-2-oxo-imidazolidin-1-yl)-4-[5-(trifluoromethyl)-1,2,4-oxadiazol-3-yl]benzamide]		238 to 245 °C		≥ 80	≥ 80
O=C(NN1CCOCC1)c1ccc(-c2noc(C(F)(F)F)n2)c(F)c1 [Compound 1.16, 3-fluoro-N-morpholino-4-[5-(trifluoromethyl)-1,2,4-oxadiazol-3-yl]benzamide]		140 to 160 °C		≥ 80	≥ 80
O=C1CN(NC(=O)c2ccc(-c3noc(C(F)(F)F)n3)cc2)C(=O)N1 [Compound 1.9]		192 to 196 °C	≥ 80	≥ 80	
O=C(Cc1ccc(-c2noc(C(F)(F)F)n2)cc1)NN1CCOCC1 [Compound 1.17, N-morpholino-2-[4-[5-(trifluoromethyl)-1,2,4-oxadiazol-3-yl]phenyl]acetamide]		182 to 188 °C	≥ 80	≥ 80	≥ 80
